Laboratory results reported in paper PMC2951136 (Journal of neurochemistry, 2009).

Target: human dopamine transporter (hDAT) (Homo sapiens, UniProt Q01959)
Test: live-cell confocal imaging of ASP+ accumulation in hDAT-transfected EM4 cells
Type: cell-based

Chain of human dopamine transporter (hDAT) (Q01959 whole entry): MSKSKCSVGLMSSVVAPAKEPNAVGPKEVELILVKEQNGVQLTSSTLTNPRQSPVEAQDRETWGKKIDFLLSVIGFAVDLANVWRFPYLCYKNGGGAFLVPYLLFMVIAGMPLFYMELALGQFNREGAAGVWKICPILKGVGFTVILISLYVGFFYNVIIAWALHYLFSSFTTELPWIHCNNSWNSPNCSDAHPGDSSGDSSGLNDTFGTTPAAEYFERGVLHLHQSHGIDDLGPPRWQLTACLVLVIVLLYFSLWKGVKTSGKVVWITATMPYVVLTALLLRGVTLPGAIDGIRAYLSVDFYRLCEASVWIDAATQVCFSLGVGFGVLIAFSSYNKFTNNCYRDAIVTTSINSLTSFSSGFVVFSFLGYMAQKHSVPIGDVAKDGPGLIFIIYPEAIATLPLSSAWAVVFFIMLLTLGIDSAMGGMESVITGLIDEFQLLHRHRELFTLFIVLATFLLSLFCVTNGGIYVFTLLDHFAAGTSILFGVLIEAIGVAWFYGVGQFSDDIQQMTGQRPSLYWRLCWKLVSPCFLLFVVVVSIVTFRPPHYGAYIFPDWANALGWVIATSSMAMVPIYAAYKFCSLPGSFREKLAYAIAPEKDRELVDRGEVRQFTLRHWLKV

CCCCC/C=C\C/C=C\C/C=C\C/C=C\CCCC(=O)NCCO [AEA, anandamide]
IC50: 3.2 ± 0.8 µM
